Experimental data: patent US11397186B2, “Methods for covalently binding a cell surface protein and a ligand” (UNIVERSITEIT GENT, priority 2016, dated 2022)
Non-standard residues stand in square brackets, D forms with d. Residues, ends and D or L forms follow the SMILES beside them. Ala(2-furyl) = N[C@@H](Cc1ccco1)C(=O)O

Biological target: T1, μ-opioid receptor (MOR) (Homo sapiens, UniProt P35372)
T1 construct: expressed in transfected cells; host or cells: CHO-hOR cells (CHO cells expressing the human opioid receptor)
Experiment: Opioid receptor radio-ligand binding assay (CHO-hOR cells)
Conditions: based on Table 1
Experimental: Next, the synthesised peptides were subjected to biological activity testing, to know whether they still bind to the opioid receptor. If so, it is tested to which opioid receptor subtype they bind. It is also investigated whether the opioid peptides behave as agonist or antagonist. The following assays are performed: radio-ligand binding assay, ^35S GTP binding assay, and tissue experiments, including guinea pig ileum (GPI) and mouse vas deferens (MVD) tests.

T1 sequence (P35372 whole entry): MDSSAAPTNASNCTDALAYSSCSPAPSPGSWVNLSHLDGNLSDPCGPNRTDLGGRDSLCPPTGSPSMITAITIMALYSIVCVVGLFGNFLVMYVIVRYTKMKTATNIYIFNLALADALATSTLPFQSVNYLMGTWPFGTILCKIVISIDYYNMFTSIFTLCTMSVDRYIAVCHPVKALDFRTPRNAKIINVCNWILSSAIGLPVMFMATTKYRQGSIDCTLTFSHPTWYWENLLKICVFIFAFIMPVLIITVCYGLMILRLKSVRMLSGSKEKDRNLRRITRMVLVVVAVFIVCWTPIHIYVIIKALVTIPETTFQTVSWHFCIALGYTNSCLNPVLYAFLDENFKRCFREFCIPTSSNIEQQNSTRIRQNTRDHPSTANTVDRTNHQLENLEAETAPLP

N=C(N)NCCC[C@@H](NC(=O)[C@@H](N)Cc1ccc(O)cc1)C(=O)N[C@@H](Cc1ccco1)C(=O)N[C@@H](Cc1ccccc1)C(N)=O [FUA3] (H-Y[dR][Ala(2-furyl)]F-NH2; N-terminus and C-terminus assumed)
binding to the opioid receptor, assessment in words: acceptable
